Assay results reported in PMC6287471 (International Journal for Parasitology: Drugs and Drug …, 2018).
Where a name gives a salt, the structure may show the parent alone.

How the values were obtained:
Hco-ACC-2 WT channel [1] = target: T1, Hco-ACC-2 WT channel (Haemonchus contortus, UniProt A0A219KWM7); conditions: wild-type channel; partial = maximum response lower than 100% of ACh
T1 sequence (A0A219KWM7 18-443): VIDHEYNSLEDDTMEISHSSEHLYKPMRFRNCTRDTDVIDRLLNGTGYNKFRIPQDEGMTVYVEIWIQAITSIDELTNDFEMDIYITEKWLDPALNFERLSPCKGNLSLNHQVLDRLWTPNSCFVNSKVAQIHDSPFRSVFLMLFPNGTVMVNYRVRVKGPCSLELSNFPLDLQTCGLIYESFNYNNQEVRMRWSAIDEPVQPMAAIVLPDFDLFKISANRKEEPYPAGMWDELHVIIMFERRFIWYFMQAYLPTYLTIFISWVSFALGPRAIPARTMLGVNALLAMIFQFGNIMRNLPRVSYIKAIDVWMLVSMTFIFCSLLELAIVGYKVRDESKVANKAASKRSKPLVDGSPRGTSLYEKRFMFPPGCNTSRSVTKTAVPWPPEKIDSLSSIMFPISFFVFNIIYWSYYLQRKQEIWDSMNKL

Hco-ACC-2 WT channel [2] = target: T1, Hco-ACC-2 WT channel; experiment: cell-based; conditions: EC50 ± standard error, n ≥ 5 oocytes

| Compound | full or partial agonist (Hco-ACC-2 WT channel [1]) | EC50 (Hco-ACC-2 WT channel [2]) |
| --- | --- | --- |
| CC(=O)OCC[N+](C)(C)C [Acetylcholine] | full agonists | – |
| C[N+](C)(C)CCOC(N)=O [Carbachol, Carbamoylcholine Chloride] | partial agonists | 43 ± 4 µM |
| C[N+](C)(C)CCO [Choline, Choline Chloride] | – | 1280 ± 35 µM |
| c1ccc([C@H]2CN3CCSC3=N2)cc1 [Levamisole, Levamisole Hydrochloride] | partial agonists | 98 ± 4 µM |
| CC(=O)OC(C)C[N+](C)(C)C (stereo not drawn) [Methacholine, Acetyl-β-methylcholine Chloride] | full agonists | 100 ± 2 µM |
| CN1CCCN=C1/C=C/c1cccs1 [Pyrantel, Pyrantel Citrate Salt] | partial agonists | 72 ± 4 µM |
| CC(C[N+](C)(C)C)OC(N)=O (stereo not drawn) [Urecholine, Carbamyl-β-methylcholine chloride] | partial agonists | 747 ± 22 µM |
